Source: patent US20110044938A1 (NYCOMED GMBH, priority 2006, published 2011)

Experiments:
[1] = test system: RKO (RKOp27) human colon adenocarcinoma cells; assay: Alamar Blue cell viability assay, anti-proliferative/cytotoxic activity on proliferating RKO subclones; format: cell-based; conditions: RKOp27, 72 h, RKO p27 uninduced (proliferating) cells, value = class bound given in Table A, read-out: −logIC50 RKO p27 uninduced (proliferating) (converted)
How it was run: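 Alamar Blue fluorescence (ex 544, em 590 nm) after 72 h compound exposure at 37 °C, 5% CO2, normalised to untreated controls set at 100%. Cells were seeded at 5000 per well and dosed 24 h later with serial semi-logarithmic dilutions in 10% FCS DMEM, four replicates each. −log IC50 [mol/l] was derived from concentration-effect curves.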

[2] = test system: subclones of RKO colon adenocarcinoma cells (RKOp27 or RKOp21) arrested by Ponasterone A; assay: Alamar Blue cell viability assay, cell cycle specific mode of action: cells arrested by ectopic p27Kip1 induced by Ponasterone A versus proliferating cells; format: cell-based; conditions: Homo sapiens, RKO p27 induced (arrested) cells, 10 μM Ponasterone A, 72 hours, value = class bound given in Table A, read-out: −logIC50 RKO p27 induced (arrested) (converted)
How it was run: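 Viability of proliferating versus Ponasterone A (10 μM)-arrested RKOp27/RKOp21 cells after 72 h compound exposure at 37° C, in quadruplicate. Read-out is Alamar Blue fluorescence (544/590 nm) normalised to untreated cells = 100%; values as −log IC50.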

| Compound | IC50 [2] | IC50 [1] |
| --- | --- | --- |
| N#Cc1c(NC(=O)CCc2cccnc2)sc2c1CCC(OC(=O)NC1CC1)C2 (stereo not shown) [Example 161, Cyclopropyl-carbamic acid 3-cyano-2-(3-pyridin-3-yl-propanoylamino)-4,5,6,7-tetrahydro-benzo[b]thiophen-6-yl ester] | ≥ 50100 nM | 501 to 2000 nM |
| CC(CC(=O)Nc1sc2c(c1C#N)CCC(COC(=O)NCc1nccn1C)C2)c1ccccc1 (stereo not shown) [Example 311, (1-Methyl-1H-imidazol-2-ylmethyl)-carbamic acid 3-cyano-2-(3-phenyl-butanoylamino)-4,5,6,7-tetrahydro-benzo[b] thiophen-6-ylmethyl ester] | ≥ 10000 nM | ≤ 501 nM |
| Cc1nc(CNC(=O)OCC2CCc3c(sc(NC(=O)/C=C/c4cccnc4)c3C#N)C2)cs1 (stereo not shown) [Example 66, (2-Methyl-thiazol-4-ylmethyl)-carbamic acid 3-cyano-2-((E)-3-pyridin-3-yl-allanoylamino)-4,5,6,7-tetrahydro-benzo[b]thiophen-6-ylmethyl ester] | ≥ 100000 nM | ≤ 501 nM |
| Cc1cc(CNC(=O)OCC2CCc3c(sc(NC(=O)CC(C)c4cccnc4)c3C#N)C2)on1 (stereo not shown) [Example 370, (3-Methyl-isoxazol-5-ylmethyl)-carbamic acid 3-cyano-2-(3-pyridin-3-yl-butanoylamino)-4,5,6,7-tetrahydro-benzo[b] thiophen-6-ylmethyl ester] | ≥ 50100 nM | 501 to 2000 nM |
| COc1cccc(CCC(=O)Nc2sc3c(c2C#N)CCC(OC(=O)NCc2ccnn2C)C3)c1 (stereo not shown) [Example 221, (2-Methyl-2H-pyrazol-3-ylmethyl)-carbamic acid 3-cyano-2-[3-(3-methoxy-phenyl)-propanoylamino]-4,5,6,7-tetrahydro-benzo[b]thiophen-6-yl ester] | ≥ 100000 nM | ≤ 501 nM |
| CC(CC(=O)Nc1sc2c(c1C#N)CCC(COC(=O)NCc1ccnn1C)C2)c1ccccc1 (stereo not shown) [Example 313, (2-Methyl-2H-pyrazol-3-ylmethyl)-carbamic acid 3-cyano-2-(3-phenyl-butanoylamino)-4,5,6,7-tetrahydro-benzo[b] thiophen-6-ylmethyl ester] | ≥ 50100 nM | ≤ 501 nM |
| CCOC(=O)OCC1CCc2c(sc(NC(=O)CCc3ccccc3OCC)c2C#N)C1 (stereo not shown) [Example 151, Carbonic acid 3-cyano-2-[3-(2-ethoxy-phenyl)-propanoylamino]-4,5,6,7-tetrahydro-benzo[b]thiophen-6-ylmethyl ester ethyl ester] | ≥ 100000 nM | ≤ 501 nM |
| CC(CC(=O)Nc1sc2c(c1C#N)CCC(COC(=O)NCCn1ccnc1)C2)c1ccccc1 (stereo not shown) [Example 310, (2-Imidazol-1-yl-ethyl)-carbamic acid 3-cyano-2-(3-phenyl-butanoyl-amino)-4,5,6,7-tetrahydro-benzo[b]thiophen-6-ylmethyl ester] | ≥ 10000 nM | 501 to 2000 nM |
| COc1cccc(C(C)CC(=O)Nc2sc3c(c2C#N)CCC(COC(=O)NCc2ccccn2)C3)c1 (stereo not shown) [Example 324, Pyridin-2-ylmethyl-carbamic acid 3-cyano-2-[3-(3-methoxy-phenyl)-butanoylamino]-4,5,6,7-tetrahydro-benzo[b] thiophen-6-ylmethyl ester] | ≥ 50100 nM | 501 to 2000 nM |
| C=CCN(C)C(=O)OCC1CCc2c(sc(NC(=O)/C=C/c3cccnc3)c2C#N)C1 (stereo not shown) [Example 112, Allyl-methyl-carbamic acid 3-cyano-2-((E)-3-pyridin-3-yl-allanoylamino)-4,5,6,7-tetrahydro-benzo[b]thiophen-6-ylmethyl ester] | ≥ 100000 nM | ≤ 501 nM |
| CCOc1ccccc1CCC(=O)Nc1sc2c(c1C#N)CCC(COC(=O)NCCc1cccnc1)C2 (stereo not shown) [Example 176, (2-Pyridin-3-yl-ethyl)-carbamic acid 3-cyano-2-[3-(2-ethoxy-phenyl)-propanoylamino]-4,5,6,7-tetrahydro-benzo[b]thiophen-6-ylmethyl ester] | ≥ 100000 nM | ≤ 501 nM |
| CCOc1ccccc1CCC(=O)Nc1sc2c(c1C#N)CCC(OC(=O)NCc1cnn(C)c1)C2 (stereo not shown) [Example 170, (1-Methyl-1H-pyrazol-4-ylmethyl)-carbamic acid 3-cyano-2-[3-(2-ethoxy-phenyl)-propanoylamino]-4,5,6,7-tetrahydro-benzo[b]thiophen-6-yl ester] | ≥ 100000 nM | ≤ 501 nM |
| CCOc1ccccc1CCC(=O)Nc1sc2c(c1C#N)CCC(COC(=O)NCCn1ccnc1)C2 (stereo not shown) [Example 164, (2-Imidazol-1-yl-ethyl)-carbamic acid 3-cyano-2-[3-(2-ethoxy-phenyl)-propanoylamino]-4,5,6,7-tetrahydro-benzo[b]thiophen-6-ylmethyl ester] | ≥ 10000 nM | ≤ 501 nM |
| COc1cccc(C(C)CC(=O)Nc2sc3c(c2C#N)CCC(COC(=O)NCc2cn(C)nc2C)C3)c1 (stereo not shown) [Example 339, (1,3-Dimethyl-1H-pyrazol-4-ylmethyl)-carbamic acid 3-cyano-2-[3-(3-methoxy-phenyl)-butanoylamino]-4,5,6,7-tetrahydro-benzo[b] thiophen-6-ylmethyl ester] | ≥ 50100 nM | 501 to 2000 nM |
| CCOc1ccccc1CCC(=O)Nc1sc2c(c1C#N)CCC(COC(=O)NCc1ccccc1)C2 (stereo not shown) [Example 160, Benzyl-carbamic acid 3-cyano-2-[3-(2-ethoxy-phenyl)-propanoylamino]-4,5,6,7-tetrahydro-benzo[b]thiophen-6-ylmethyl ester] | ≥ 100000 nM | ≤ 501 nM |

Now from value to compound, other results behind:

| IC50 [2] | Compound | IC50 [1] |
| --- | --- | --- |
| ≥ 100000 nM | Cn1cc(CNC(=O)OC2CCc3c(sc(NC(=O)/C=C/c4cccnc4)c3C#N)C2)cn1 (stereo not shown) [Example 41, (1-Methyl-1H-pyrazol-4-ylmethyl)-carbamic acid 3-cyano-2-((E)-3-pyridin-3-yl-allanoylamino)-4,5,6,7-tetrahydro-benzo[b]thiophen-6-yl ester] | ≤ 501 nM |
| ≥ 100000 nM | N#Cc1c(NC(=O)/C=C/c2cccnc2)sc2c1CCC(OC(=O)N1CC=CC1)C2 (stereo not shown) [Example 92, 2,5-Dihydro-pyrrole-1-carboxylic acid 3-cyano-2-((E)-3-pyridin-3-yl-allanoylamino)-4,5,6,7-tetrahydro-benzo[b]thiophen-6-yl ester] | ≤ 501 nM |
| ≥ 100000 nM | Cc1cc(CNC(=O)OC2CCc3c(sc(NC(=O)/C=C/c4cccnc4)c3C#N)C2)on1 (stereo not shown) [Example 94, (3-Methyl-isoxazol-5-ylmethyl)-carbamic acid 3-cyano-2-((E)-3-pyridin-3-yl-allanoylamino)-4,5,6,7-tetrahydro-benzo[b]thiophen-6-yl ester] | ≤ 501 nM |
| ≥ 100000 nM | CNC(=O)OC1CCc2c(sc(NC(=O)/C=C/c3cccnc3)c2C#N)C1 (stereo not shown) [Example 20, Methyl-carbamic acid 3-cyano-2-((E)-3-pyridin-3-yl-allanoylamino)-4,5,6,7-tetrahydro-benzo[b]thiophen-6-yl ester] | ≤ 501 nM |
| ≥ 100000 nM | Cn1cnc(CNC(=O)OC2CCc3c(sc(NC(=O)/C=C/c4cccnc4)c3C#N)C2)c1 (stereo not shown) [Example 53, (1-Methyl-1H-imidazol-4-ylmethyl)-carbamic acid 3-cyano-2-((E)-3-pyridin-3-yl-allanoylamino)-4,5,6,7-tetrahydro-benzo[b]thiophen-6-yl ester] | 501 to 2000 nM |
| ≥ 100000 nM | N#Cc1c(NC(=O)/C=C/c2cccnc2)sc2c1CCC(OC(=O)N1CCCCO1)C2 (stereo not shown) [Example 120, [1,2]Oxazinane-2-carboxylic acid 3-cyano-2-((E)-3-pyridin-3-yl-allanoylamino)-4,5,6,7-tetrahydro-benzo[b]thiophen-6-yl ester] | ≤ 501 nM |
| ≥ 100000 nM | COC1CN(C(=O)OC2CCc3c(sc(NC(=O)/C=C/c4cccnc4)c3C#N)C2)C1 (stereo not shown) [Example 118, 3-Methoxy-azetidine-1-carboxylic acid 3-cyano-2-((E)-3-pyridin-3-yl-allanoylamino)-4,5,6,7-tetrahydro-benzo[b]thiophen-6-yl ester] | 501 to 2000 nM |
| ≥ 100000 nM | N#Cc1c(NC(=O)/C=C/c2cccnc2)sc2c1CCC(OC(=O)N1CCC[C@H]1CO)C2 (stereo partly drawn) [Example 108, 2-(S)-(Hydroxymethyl) pyrrolidine-1-carboxylic acid 3-cyano-2-((E)-3-pyridin-3-yl-allanoylamino)-4,5,6,7-tetrahydro-benzo[b]thiophen-6-yl ester] | 501 to 2000 nM |
| ≥ 100000 nM | N#Cc1c(NC(=O)/C=C/c2cccnc2)sc2c1CCC(OC(=O)NCc1ccno1)C2 (stereo not shown) [Example 60, Isoxazol-5-ylmethyl-carbamic acid 3-cyano-2-((E)-3-pyridin-3-yl-allanoylamino)-4,5,6,7-tetrahydro-benzo[b]thiophen-6-yl ester] | 501 to 2000 nM |
| ≥ 100000 nM | N#Cc1c(NC(=O)/C=C/c2cccnc2)sc2c1CCC(COC(=O)N1CCCC1)C2 (stereo not shown) [Example 68, Pyrrolidine-1-carboxylic acid 3-cyano-2-((E)-3-pyridin-3-yl-allanoylamino)-4,5,6,7-tetrahydro-benzo[b]thiophen-6-ylmethyl ester] | ≤ 501 nM |
| ≥ 100000 nM | COC(=O)[C@@H]1CCCN1C(=O)OC1CCc2c(sc(NC(=O)/C=C/c3cccnc3)c2C#N)C1 (stereo partly drawn) [Example 81, 2-(S)-Pyrrolidine-1,2-dicarboxylic acid 1-[3-cyano-2-((E)-3-pyridin-3-yl-allanoylamino)-4,5,6,7-tetrahydro-benzo[b]thiophen-6-yl] ester 2-methyl ester] | 501 to 2000 nM |
